Results on five molecules are retold here after PMC3996484, “Apoptosis Therapy in Cancer: The First Single-molecule Co-activating p53 and the Translocator Protein in Glioblastoma” (Scientific Reports, 2014).

For orientation: IC50 means the midpoint of a concentration-inhibition curve. By Ki is commonly meant the dissociation constant of the complex between target and ligand, obtained from inhibition or displacement.

Data set [1] concerns the target T1, native human MDM2/p53 complex (Homo sapiens, UniProt Q00987).
T1 construct: U87MG cell lysates, containing the native MDM2/p53 complex; endogenous in cells; host or cells: U87MG human glioblastoma cells
Kind of data set: ELISA-based dissociation of native MDM2/p53 complex in U87MG cell lysates. It is filed as biochemical. Background: An ELISA detects its analyte on a solid surface through an enzyme-linked reagent.
Description: After extensive washes, levels of the MDM2/p53 complex were quantified using an antibody specific for p53, and subsequently an HRP-conjugated antibody and a TMB substrate kit. (C), (D) U87MG cell lysates, containing the native MDM2/p53 complex, were pre-incubated with DMSO (control) or different concentrations of the indicated compounds. Then, lysates were captured on wells pre-coated with MDM2 antibody. After extensive washes, levels of the MDM2/p53 complex were quantified using an antibody specific for p53, and subsequently an HRP-conjugated antibody and a TMB substrate kit. Blank wells were obtained in the absence of p53 antibody. Data are expressed as absorbance at 450 nm minus blank values (A), (B), or as % of control set to 100% (C), (D), and represent the mean ± SEM of at least three independent experiments.
To test the ability of new compound to dissociate the native MDM2/p53 complex, a quantitative sandwich immune-enzymatic assay, on crude cell lysates obtained from U87 MG cells was developed. […] The TMB substrate kit (Thermo Fisher Scientific) allowed a colorimetric quantification of the MDM2/p53 complex. […] Absorbance's values at 450 nm were measured, background subtracted and sigmoid dose-response curves were generated using Graph Pad Prism 4 software, from which IC50 values of MDM2/p53 complex were derived.

Data set [2] deals with U87MG cells. Kind of data set: Annexin V and 7-AAD staining (apoptosis). It counts as cell-based, human. The method, then:
Dual staining with Annexin V coniugated to fluorescein-isothiocyanate (FITC) and 7-amino-actinomysin (7-AAD) was performed using the commercially available kit (Muse Annexin V and Dead Cell Kit; Merck KGaA, Darmstadt, Germany). […] Both floating and adherent cells were collected, centrifuged at 300 × g for 5 minutes and suspended in cell culture medium. Then, a 100 μl aliquot of cell suspension (about 5 × 10^4 cell/ml) was added to 100 μl of fluorescent reagent and incubated for 10 minutes at room temperature. After incubation, the percentages of living, apoptotic and dead cells were acquired and analyzed by Muse™ Cell Analyzer in accordance to the manufacture's guidelines. In cells undergoing apoptosis, annexin V binds to phosphatidylserine, which translocates to the outer leaflet of the cytoplasmatic membrane. Double staining is used to distinguish between viable, early apoptotic, and necrotic or late apoptotic cells. Annexin V:FITC […] cells were identified as early apoptotic. Cells which were Annexin V-FITC positive and 7-AAD positive were identified as cells in late apoptosis or necrotic.

The subject of data set [3] is U87MG cells. As to the kind of experiment: Cell viability, Trypan blue exclusion assay. It counts as cell-based, human. The method, then: Each experiment was performed in duplicate. […] Each experiment was performed in duplicate.
The effects of compound treatment on U87MG cell viability were evaluated by Trypan blue exclusion assays. Briefly harvested cells were mixed with an equal volume of 0.4% trypan blue dye. For quantization of cell viability, blue and bright cells were counted, and viability was calculated as the percentage of live (bright) cells versus control set to 100%. U87MG cells were treated with different concentrations (10 nM–10 μM) of each compound and after 24 h of incubation viable cells were counted.

Data set [4] concerns U87MG cells. Kind of data set: Δψm dissipation in intact cells (JC-1, mitochondria isolated after cell treatment). As to conditions: for Δψm dissipation: 10 μM, 24 h of cell treatment; for Δψm dissipation vs control: intact cells, 5 μM, 24 h.
The target in the next data set is T2, TSPO (Rattus norvegicus, UniProt P16257).
T2 construct: membranes homogenates obtained from kidney (20 μg of proteins) were incubated with 0.6 nM; from tissue; host or cells: kidney (crude mitochondrial membranes)
Kind of data set: Competitive [3H]PK11195 radioligand binding assay. The conditions noted are these: membrane homogenates from kidney, 0.6 nM [3H]PK11195; read-out: Ki, displacement of specific [3H]PK11195 binding. The method, then: (§1) Figure 3 New synthesized compounds bind to TSPO and induce Δψm collapse. (A) [^3H]PK11195 radioligand binding: membranes homogenates obtained from kidney (20 μg of proteins) were incubated with 0.6 nM [^3H]PK11195 and different compounds concentration. Reaching equilibrium, samples were filtered and bound radioactivity was counted. […] (B) Evaluation of Δψm in isolated mitochondria: Mitochondria (5 μg of proteins) were treated with compound 1 (5 μM), or compound 7 (5 μM), or DMSO (control) for 15 min. […] Each experiment was performed in duplicate.
Binding studies were performed as previously described. Briefly, crude mitochondrial membranes, in 50 mM Tris-HCl pH 7.4 buffer, were incubated with 0.6 nM [^3H]PK 11195 in the presence of new synthesized compounds (0.1 nM–10 μM) in a final volume of 0.5 ml for 90 min at 4°C. Incubations were terminated by rapid filtration through GF/C glass fiber filters and washed three times with 4 ml of cold buffer. The radioactivity was measured by liquid scintillation counter. Non-specific binding was estimated in the presence of unlabeled 1 μM PK 11195. IC50 value was determined using Graph-Pad Prism computer program (Graph Pad Software, version 5.0; San Diego, CA).

The test system of data set [5] is mitochondria isolated from the human GBM cell line U87MG. As to the kind of experiment: Δψm dissipation in isolated mitochondria (JC-1). As to conditions: isolated treated mitochondria, 5 μM, 15 min. It counts as biochemical. The method, then:
as §1
Several evidences have shown that TSPO is a constituent of the MPTP, taking therefore part in dissipation of Δψm that occurs after MPTP opening, as well as in the release of proapoptotic inter-membrane proteins and in the induction of apoptosis. To assess whether compounds 1 and 7 could modulate MPT-pore opening through their selective binding to TSPO, Δψm was measured in mitochondria isolated from the human GBM cell line U87MG.

The subject of data set [6] is p53 protein levels in U87MG cells. Kind of data set: p53 protein levels by Western blot. It is filed as cell-based, human. The conditions noted are these: 8 h incubation. The method, then:
Figure 6 New synthesized compounds induce p53 protein accumulation by dissociation of MDM2/p53 complex and stimulate transcription of p53 target genes in U87MG cells. […] Lysates were subjected to Western blot analysis using antibody to p53 (FL-393; Santa Cruz Biotechnology). […] The MDM2/p53 complex and the relative input of the proteins were detected by immunoblot. One representative Western blot is presented (left panel). […] (D) Relative mRNA quantification of p53 target genes: The relative mRNA quantification of p53 target genes (p21 and MDM2) was performed by real-time RT-PCR as describe in Methods. […] Each experiment was performed in duplicate.
The western blot analysis for the evaluation of p53 protein levels was performed as previously described. […] 30 μg of each sample was then resolved by SDS-PAGE (8.5%), transferred to PVDF membranes and probed overnight at 4°C with primary antibody anti-p53 (FL-393; Santa Cruz Biotechnology; 1:500). The primary antibody was detected using anti-rabbit IgG light chains conjugated to peroxidase (diluted 1:10.000). The peroxidase was detected using a chemioluminescent substrate (ECL, Perkin Elmer). Densitometric analysis of immunoreactive bands was performed using Image J Software.

Data set [7] deals with p53 target genes (MDM2, p21, PUMA) in U87MG cells. Kind of data set: Relative mRNA quantification of p53 target genes (real-time RT-PCR). It counts as cell-based, human. As to conditions: for mRNA levels of p53 target genes (MDM2 and p21): 5 μM. The method, then:
The assessment of p53 target gene mRNA levels was performed by real-time reverse transcription polymerase chain reaction (real-time RT-PCR)[16]. In brief, total RNA was extracted from control cells as well as from cells treated with compounds (5 μM) for different hours, using Rneasy® Mini Kit (Qiagen, Hilden, Germany) according to manufacturer's instructions. Purity of the RNA samples was determined by measuring the absorbance at 260:280 nm. cDNA synthesis was performed with 500 ng of RNA using i-Script cDNA synthesis kit (BioRad, Hercules, USA) following manufacturer's instructions. […] RT-PCR reactions consisted of 25 μL Fluocycle® II SYBR® (Euroclone, Milano, Italy), 1.5 μL of both 10 μM forward and reverse primers, 3 μL cDNA, and 19 μL of H2O. All reactions were performed for 40 cycles using 55°C as annealing temperature. The p53 target gene mRNA levels for each sample were normalized against β-actin mRNA levels, and relative expression was calculated by using Ct value. PCR specificity was verified by both the melting curve analysis and gel electrophoresis.
(In qPCR the cycle at which signal appears reflects the starting amount.)

Data set [8] relates to U87MG cells. Kind of data set: Senescence marker SA-β-Gal. It counts as cell-based, human. The conditions noted are these: 5 μM, 24 h. An excerpt:
The senescence marker SA-β-Gal was detected as previously described[16] and cells were then washed in PBS (1×) and photographed at 100× magnification. Images of random light microscopic fields were captured (5 fields per well), and both blue and total cells were counted using ImageJ (ImageJ Software, version 1.41; USA).

Data set [9] can be described thus: Precipitation in NMR sample. It counts as physicochemical. The conditions noted are these: added from DMSO stock, 20 mM TrisHCl, 150 mM KCl, pH 7.4. The method, then:
NMR spectra were acquired at 25°C on a Varian Unity INOVA 700 MHz spectrometer equipped with a cryoprobe. NMR samples contained 0.1 mM of proteins in 20 mM TrisHCl, 150 mM KCl, pH 7.4, 5 mM β-mercaptoethanol, 0.02% NaN3. Water suppression was carried out by gradient echo[39]. NMR data were processed using the Bruker program BioSpin 3.0. For NMR ligand binding experiments, 300 μL of the protein sample containing 10% D2O, at a concentration of about 0.1 mM, and a 10 mM stock solution of compounds 7 and 1 in DMSO-d6 were used. The formal final molar ratio protein:inhibitor was 1:2.

Data set [10] has as its target T3, recombinant human MDM2/p53 complex (Homo sapiens, UniProt Q00987).
T3 construct: N-terminal region of MDM2 (residues 1–118); His-tag; made in house; host or cells: Escherichia coli BL21(DE3) RIL
Kind of data set: NMR dissociation (AIDA) of recombinant MDM2/p53 complex. It is filed as binding. The conditions noted are these: 0.2 mM formal final concentration, complex 0.1 mM.
Excerpt: The method, named AIDA (for Antagonist Induced Dissociation Assay[26][27]), can work with complex made by a large protein fragment (larger than 30 kDa) and a small reporter protein (less than 20 kDa). AIDA makes use of two-dimensional^15N-HSQC spectra, however, in the presence of flexible protein residues, 1D proton NMR spectra may be sufficient for monitoring the states of the complex upon addition of ligands. Since the N-terminal domain of p53 is highly flexible, MDM2/p53 complex is suitable for 1D proton NMR application[26][28][29]. Particularly, the signals from ^NH^ε side chains of W23 and W53 are sharp in the free p53 1D proton spectrum. After the complex formation, W23 signal disappears, since W23 comprises the primary binding site for MDM2. In fact, residues 17–26 of p53 participate in well-defined structures of large MDM2/p53 complexes. In contrast, W53 is still not structured when p53 binds MDM2[26].
NMR spectra were acquired at 25°C on a Varian Unity INOVA 700 MHz spectrometer equipped with a cryoprobe. […] Water suppression was carried out by gradient echo[39]. NMR data were processed using the Bruker program BioSpin 3.0.

Like-named read-outs stand apart in the source and are kept apart here.

T1 sequence (Q00987 whole entry, one chain of several): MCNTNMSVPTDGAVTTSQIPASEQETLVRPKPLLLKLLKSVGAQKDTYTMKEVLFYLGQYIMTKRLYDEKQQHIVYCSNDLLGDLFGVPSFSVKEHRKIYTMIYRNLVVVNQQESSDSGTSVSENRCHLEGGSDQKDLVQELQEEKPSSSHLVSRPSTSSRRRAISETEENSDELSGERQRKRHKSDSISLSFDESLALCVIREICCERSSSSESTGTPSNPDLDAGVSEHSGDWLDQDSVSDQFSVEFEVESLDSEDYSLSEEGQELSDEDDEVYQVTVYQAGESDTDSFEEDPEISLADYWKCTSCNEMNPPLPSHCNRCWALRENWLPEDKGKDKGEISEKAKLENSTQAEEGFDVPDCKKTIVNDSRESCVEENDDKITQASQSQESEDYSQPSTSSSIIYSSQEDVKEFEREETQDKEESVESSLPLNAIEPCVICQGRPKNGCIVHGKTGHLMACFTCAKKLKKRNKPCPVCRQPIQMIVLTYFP
T3 sequence (Q00987 1-118, one chain of several): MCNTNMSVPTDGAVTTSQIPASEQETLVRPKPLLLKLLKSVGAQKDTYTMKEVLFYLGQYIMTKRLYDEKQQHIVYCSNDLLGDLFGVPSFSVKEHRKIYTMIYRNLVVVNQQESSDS

`O=C1[C@@H]2CS[C@@]3(C(=O)Nc4ccccc43)N2C(=O)N1Cc1ccc(Cl)cc1` [ISA27, reference compound]: the IC50 in [1] is 122 ± 14.5 nM.
For `COc1ccc(C2=N[C@@H](c3ccc(Cl)cc3)[C@@H](c3ccc(Cl)cc3)N2C(=O)N2CCNC(=O)C2)c(OC(C)C)c1` [Nutlin-3, reference compound], the “induction of specific apoptotic parameters (Annexin V, PUMA mRNA)” value in the data set with U87MG cells [2] (10 μM, 24 h) is listed as “did not show any induction”. Besides, the “effect on U87MG cell viability” value with U87MG cells [3] (24 h) is listed as “dose-dependent reduction”. In the data set on U87MG cells [4], the Δψm dissipation entry is given as “only a marginal effect”.
For the molecule `CCC(C)N(C)C(=O)c1cc2ccccc2c(-c2ccccc2Cl)n1` (stereo not shown) [PK11195], the “inhibition of cell viability vs control” value in the data set on U87MG cells [3] (100 μM, 24 h, maximal effect) is given as 52.0 ± 2.3%. Moreover, the “concentration from which inhibition of cell viability is significant” value with U87MG cells [3] (24 h) stood at 10 µM. For the same molecule, the Δψm dissipation entry in the data set on U87MG cells [4] is listed as “significant Δψm dissipation”.
With `CCOC(=O)[C@@H](Cc1ccccc1)NC(=O)[C@H](CC(C)C)NC(=O)C(=O)c1c(-c2ccccc2)[nH]c2ccccc12` [compound 1, (2-phenylindol-3-yl)glyoxyl-L-leucine-L-phenylalanine ethylester], the inhibition constant Ki on TSPO is 438 ± 35 nM. For the same molecule, the “Δψm dissipation vs control” value in [5] came to 20.0 ± 1.8%; with U87MG cells [4] it was 47.0 ± 3.4%. Further, the “concentration at which p53 accumulation became significant” value in data set [6] came to 5 µM. For the same molecule, the “mRNA levels of p53 target genes (MDM2 and p21)” value in data set [7] was “increase significantly”. In addition, the “increase of PUMA mRNA level” value in data set [7] (16–24 h) is listed as “approximately 4 fold”. For the same molecule, the “activity of the senescence marker β-galactosidase” value in the data set with U87MG cells [8] is recorded as “no activity”. The “phosphatidylserine externalization (early and late apoptosis)” value in the data set on U87MG cells [2] (5 μM) is given as “significant phosphatidylserine externalization”. In addition, the IC50 in the data set on U87MG cells [3] (Homo sapiens, U-87 MG, 24 h, read-out: IC50, U87MG cell survival) turned out to be 2500 ± 400 nM. In addition, the “actual concentration in MDM2/p53 NMR sample (sample precipitation)” value in data set [9] is recorded as “lower than 0.2 mM”.
For `CC(C)C[C@H](NC(=O)C(=O)c1c(-c2ccccc2)[nH]c2ccccc12)C(=O)N[C@H](Cc1ccccc1)C(=O)O` [compound 7, (2-phenylindol-3-yl)glyoxyl-L-leucine-L-phenylalanine], at TSPO, the Ki came out at 759 ± 56 nM. Besides, the entries for the “Δψm dissipation vs control” value (in [5]; in the data set with U87MG cells [4]) were 43 ± 3.1% and 60.1 ± 3.2%, respectively. Also, the “p53 release from MDM2/p53 complex (W23 peak appears)” value in [10] is “complete p53 release”. The IC50 in data set [1] is 202 ± 21.2 nM; in the data set on U87MG cells [3] (Homo sapiens, U-87 MG, 24 h; read-out: IC50, U87MG cell survival) it was 2900 ± 500 nM. The “concentration at which p53 accumulation became significant” value in [6] is 5 µM. Also, the “mRNA levels of p53 target genes (MDM2 and p21)” value in data set [7] is given as “increase significantly”.
